Test results from patent US4965283A, “Amino acid esters, process for the preparation thereof and use thereof” (Dr. Willmar Schwabe GmbH & Co., priority 1987, dated 1990).
Where a name gives a salt, the structure may show the parent alone. Read-outs that look alike come from different tables or passages of the source.

Key:
mouse = test: observation for neurotoxicity symptoms (motility, muscle tonus, respiratory frequency, body temperature, general behaviour); assay type: in vivo
Experimental: During the experiments described above, the animals were observed during the whole of the experimental period (up to 4 hours) for signs of substance-caused changes of behaviour and neurotoxicity (motility, muscle tonus, respiratory frequency, body temperature and general behaviour).

[1] = test system: maximum electroshock spasm (MES), extensor spasm in mice; test: MES test (maximum electroshock; inhibition of extensor spasm); assay type: in vivo, male mice (NMRI); details: for responders at 100 mg/kg / ED50 / responders at 50 mg/kg: Mus musculus; for ED50: read-out: ED 50 values; for ED 50 values (estimated values): * estimated from several tests with different dosages
Text: For the determination of the anticonvulsive/anti-epileptic activity of the substances according to the present invention the method described by E. A. Swinyard et al., J. Pharmacol. exp. Therapeut. 106, 319-330 (1952) and by L. A. Woodbury et al., Arch. int. Pharmacodyn., 92, 97-107 (1952) was used. To male mice (NMRI) with a body weight of 20-25 g via corneal electrodes, an alternating current of 50 Hz and 50 mA is applied for 0.2 sec. (HSE-shock stimulation apparatus; type 207). The maximum electroshock spasm (MES) consists of a tonic extension of the rear extremities, the clonic twitch and loss of consciousness. The activity criterion is taken as being the inhibition of the extensor spasm by the substances according to the present invention. Before the experiments the mice had free access to feed and water. The test substances were administered orally as suspensions in 0.2% agar by stomach tubes; the control animals received adequate volumes of agar. 1 hour and 3 hours after administration the test for protective action against MES was carried out.
As percentage action the percentage proportion of those animals which in the MES test were protected 100% against the extensor spasm is given. 10 animals were used per test.
The ED 50 values were determined according to Lichtfield and Wilcoxon J. Pharmacol. exp. Therapeut. 96, 99 (1949) in each case with 4 to 5 animal groups each of 8-10 animals per dosage stage.

[2] = test system: maximum electroshock spasm (MES), extensor spasm in mice; test: as above; assay type: in vivo, male mice (NMRI); details: Mus musculus, ip, 1 h, read-out: protective action [%] after 1 hr
[3] = po, 1 h, 100 mg/kg, oral, 1 hr after administration, n = 10, read-out: protective action [%] after 1 hr
[4] = po, 3 h, 100 mg/kg, oral, 3 hrs after administration, n = 10, read-out: protective action [%] after 3 hrs
[5] = po, 1 h, oral, 1 hr after administration, n = 10, read-out: protective action [%] after 1 hr
[6] = po, 3 h, oral, 3 hrs after administration, n = 10, read-out: protective action [%] after 3 hrs
[7] = MES test, oral, 1 hour after administration
[8] = po, 1 h, MES test, oral, 1 hour after administration

| SMILES | responders at 100 mg/kg [1, 3] [%] | responders at 100 mg/kg [1, 4] [%] | responders at 50 mg/kg [1, 5] [%] | responders at 50 mg/kg [1, 6] [%] | ED 50 values (estimated values) [1, 7] [mg/kg] | other results |
| --- | --- | --- | --- | --- | --- | --- |
| CCCC(C)C1(CC)C(=O)NC(=O)NC1=O (stereo not shown) [pentobarbital] | – | – | – | – | – | Neurotoxic limiting dose in the mouse, dose p.o. (mouse; p.o.): 60 mg/kg |
| CCC1(C)CC(=O)NC1=O (stereo not shown) [ethosuximide, reference compound] | 0 | 0 | – | – | – | Neurotoxic limiting dose in the mouse, dose p.o. (mouse; in vivo, po): 500 mg/kg; ED50 ([1]; po, 4 h, MES test, oral, ** 4 hours after administration): > 250 mg/kg |
| NC(=O)N1c2ccccc2C=Cc2ccccc21 [carbamazepine, reference compound] | – | – | 100 | 100 | – | Neurotoxic limiting dose in the mouse, dose p.o. (mouse; in vivo, po): 100 mg/kg |
| COC1=CC(=O)O[C@H]1[C@H](OC(=O)CCCNC(C)=O)c1ccccc1Cl (relative stereo) [Example 115, threo-5-[4-(N-acetylamino)-butanoyloxy-(2-chlorophenyl)methyl]-4-methoxy-2(5H)-furanone] | 100 | 100 | – | – | 30 to 40 | – |
| COC1=CC(=O)OC1C(OC(=O)[C@@H](N)c1ccccc1)c1ccccc1 (single isomer, unassigned) [108 A] | 90 | 0 | – | – | 70 to 80 | – |
| COC1=CC(=O)OC1C(OC(=O)[C@@H]1CCCN1)c1ccccc1F (single isomer, unassigned) [129 B] | – | – | – | – | 95 to 105 | protective action [%] after 1 hr ([1]; 100 mg/kg, oral, 1 hr after administration, n = 10): 50%; protective action [%] after 3 hrs ([1]; 100 mg/kg, oral, 3 hrs after administration, n = 10): 0% |
| COC1=CC(=O)OC1C(OC(=O)[C@@H](N)CCC(N)=O)c1ccccc1Cl (single isomer, unassigned) [122 A] | – | – | 100 | 100 | 15 to 20 | – |
| COC1=CC(=O)OC1C(OC(=O)[C@@H]1CCCN1)c1ccccc1C (single isomer, unassigned) [141 A] | 40 | 10 | – | – | 110 to 120 | – |
| COC1=CC(=O)OC1C(OC(=O)[C@H](CCSC)NC(C)=O)c1ccccc1Cl (single isomer, unassigned) [124 A] | 100 | 20 | – | – | 25 to 35 | – |
| COC1=CC(=O)OC1C(OC(=O)[C@@H](N)CCC(=O)O)c1ccccc1Cl (single isomer, unassigned) [123 A] | – | – | 70 | 20 | – | – |
| COC1=CC(=O)O[C@H]1[C@H](OC(=O)[C@@H]1CCCN1)c1ccccc1Cl [103 B] | 50 | 0 | – | – | – | ED50 [1, 8]: 95 mg/kg |
| O=C1NC(=O)C(c2ccccc2)(c2ccccc2)N1 [phenytoin, diphenylhydantoin, reference compound] | – | – | 100 | 100 | – | Neurotoxic limiting dose in the mouse, dose p.o. (mouse; in vivo, po): 100 mg/kg; ED50 [1, 8]: 9.1 mg/kg |
| COC1=CC(=O)OC1C(OC(=O)[C@H](N)c1ccccc1)c1ccccc1Cl (stereo partly shown) [119 B] | – | – | 100 | 20 | – | ED50 [1, 8]: 37.6 mg/kg |
| COC1=CC(=O)O[C@H]1[C@H](OC(=O)CNC(C)=O)c1ccccc1Cl (relative stereo) [Example 106, threo-5-[N-acetylglycyloxy-(2-chlorophenyl)-methyl]-4-methoxy-2(5H)-furanone] | – | – | 100 | 70 | – | ED50 [1, 8]: 23.1 mg/kg |
| COC1=CC(=O)O[C@H]1[C@H](OC(=O)C1(N)CCCCC1)c1ccccc1Cl (relative stereo) [Example 157, threo-5-[1-amino-1-cyclohexylcarbonyloxy-(2-chlorophenyl)-methyl]-4-methoxy-2(5H)-furanone hydrobromide] | 100 | 40 | – | – | – | ED50 [1, 8]: 27.5 mg/kg |
| CCC1(c2ccccc2)C(=O)NC(=O)NC1=O [phenobarbital, reference compound] | – | – | – | – | – | Neurotoxic limiting dose in the mouse, dose p.o. (mouse; p.o.): 60 mg/kg; ED50 ([1]; po, 1 h): 19.2 mg/kg; responders at 100 mg/kg ([1]; po, 1 h, read-out: protective action [%] after 1 hr): 100%; responders at 100 mg/kg ([1]; po, 3 h, read-out: protective action [%] after 3 hrs): 100% |
| CCCC(CCC)C(=O)O [valproic acid, reference compound] | – | – | – | – | – | Neurotoxic limiting dose in the mouse, dose p.o. (mouse; p.o.): 350 mg/kg; ED50 ([1]; ip, 1 h): 205 mg/kg; responders at 100 mg/kg ([1]; ip, 3 h, read-out: protective action [%] after 3 hrs): 0%; responders at 100 mg/kg [2]: 0% |
